Assay results taken from ChEMBL document CHEMBL5465560, “Selectivity Literature for EUbOPEN Chemogenomic Library” (2024).
One block for each compound: values may come before it.

Experiments:
[1] = biological target: Receptor-type tyrosine-protein kinase FLT3 (Homo sapiens) (UniProt P36888); assay: Selectivity interaction (KinaseProfiler screening (Millipore)) EUB0000601a FLT3; conditions: at 3 µM
[2] = biological target: T1, Non-receptor tyrosine-protein kinase TNK1 (Homo sapiens) (UniProt Q13470); assay: Selectivity interaction (KinomeScan (DiscoverX)) EUB0001049a TNK1; conditions: at 1 µM
T1 sequence (whole entry): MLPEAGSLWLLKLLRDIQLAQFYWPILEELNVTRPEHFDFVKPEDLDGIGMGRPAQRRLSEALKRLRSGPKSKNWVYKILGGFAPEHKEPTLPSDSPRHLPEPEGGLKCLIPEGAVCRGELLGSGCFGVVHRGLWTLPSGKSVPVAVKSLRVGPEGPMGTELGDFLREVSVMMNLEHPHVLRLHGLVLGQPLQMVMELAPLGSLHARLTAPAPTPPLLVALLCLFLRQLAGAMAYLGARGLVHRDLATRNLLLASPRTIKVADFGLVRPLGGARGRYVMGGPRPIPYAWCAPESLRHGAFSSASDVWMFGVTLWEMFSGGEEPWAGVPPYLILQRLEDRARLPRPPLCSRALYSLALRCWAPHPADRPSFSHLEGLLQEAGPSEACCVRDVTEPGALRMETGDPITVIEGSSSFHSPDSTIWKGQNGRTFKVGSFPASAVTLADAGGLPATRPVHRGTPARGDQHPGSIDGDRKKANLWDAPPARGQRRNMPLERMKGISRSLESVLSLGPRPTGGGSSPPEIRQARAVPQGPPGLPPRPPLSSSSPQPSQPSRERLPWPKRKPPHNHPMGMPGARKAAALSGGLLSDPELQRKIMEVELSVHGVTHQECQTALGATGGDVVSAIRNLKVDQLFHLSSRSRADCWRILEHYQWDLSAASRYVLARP

[3] = biological target: T2, Protein kinase C iota type (Homo sapiens) (UniProt P41743); assay: Selectivity interaction (ActivX KiNativ screen (kinase selectivity in THP-1 cell lysates)) EUB0000639a PRKCI; format: subcellular; conditions: lysate, at 0.01 µM
T2 sequence (whole entry): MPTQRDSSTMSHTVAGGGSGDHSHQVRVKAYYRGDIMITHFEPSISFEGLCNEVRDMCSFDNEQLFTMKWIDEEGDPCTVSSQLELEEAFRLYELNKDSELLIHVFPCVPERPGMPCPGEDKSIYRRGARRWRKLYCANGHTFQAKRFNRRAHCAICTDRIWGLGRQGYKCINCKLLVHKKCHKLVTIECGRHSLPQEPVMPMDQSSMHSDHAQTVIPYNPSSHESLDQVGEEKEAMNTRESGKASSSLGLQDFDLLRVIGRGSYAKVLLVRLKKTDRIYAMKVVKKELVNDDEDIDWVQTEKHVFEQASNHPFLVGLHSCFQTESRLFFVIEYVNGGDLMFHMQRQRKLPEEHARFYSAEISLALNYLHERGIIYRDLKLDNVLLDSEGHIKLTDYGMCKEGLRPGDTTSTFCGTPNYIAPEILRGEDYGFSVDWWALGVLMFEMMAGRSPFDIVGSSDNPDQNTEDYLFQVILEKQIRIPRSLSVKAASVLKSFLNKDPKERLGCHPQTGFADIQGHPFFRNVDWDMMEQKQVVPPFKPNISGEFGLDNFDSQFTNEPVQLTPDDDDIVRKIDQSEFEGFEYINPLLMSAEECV

[4] = biological target: Calcium/calmodulin-dependent protein kinase kinase 2 (Homo sapiens) (UniProt Q96RR4); assay: Selectivity interaction (Kinase panel (literature)) EUB0001199aCl CAMKK2; conditions: at 1 µM
Chain of Calcium/calmodulin-dependent protein kinase kinase 2 (Homo sapiens) (Q96RR4 2-588 limits assumed): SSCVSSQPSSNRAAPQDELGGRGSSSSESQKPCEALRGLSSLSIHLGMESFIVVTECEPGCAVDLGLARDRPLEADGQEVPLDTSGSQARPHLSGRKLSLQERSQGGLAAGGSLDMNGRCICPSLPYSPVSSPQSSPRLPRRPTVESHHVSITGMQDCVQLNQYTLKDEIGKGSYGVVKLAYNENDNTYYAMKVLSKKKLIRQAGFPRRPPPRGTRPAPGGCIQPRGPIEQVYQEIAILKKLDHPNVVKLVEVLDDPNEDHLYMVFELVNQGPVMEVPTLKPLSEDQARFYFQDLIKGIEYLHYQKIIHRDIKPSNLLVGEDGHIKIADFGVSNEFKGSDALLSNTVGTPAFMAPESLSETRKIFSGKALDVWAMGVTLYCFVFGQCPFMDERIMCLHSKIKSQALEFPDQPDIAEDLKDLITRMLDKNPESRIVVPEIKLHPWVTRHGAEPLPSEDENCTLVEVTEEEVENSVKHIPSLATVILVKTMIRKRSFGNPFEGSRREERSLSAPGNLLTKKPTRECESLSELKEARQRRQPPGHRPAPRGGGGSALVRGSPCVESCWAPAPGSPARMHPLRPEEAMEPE

[5] = biological target: Interferon-induced, double-stranded RNA-activated protein kinase (Homo sapiens) (UniProt P19525); assay: Selectivity interaction (KinomeScan (DiscoverX)) EUB0000595a EIF2AK2; conditions: at 10 µM
[6] = biological target: Tyrosine-protein kinase Lyn (Homo sapiens, UniProt P07948); assay: Selectivity interaction (KinomeScan (DiscoverX)) EUB0000229b LYN; conditions: at 10 µM
[7] = biological target: T3, Receptor-interacting serine/threonine-protein kinase 1 (Homo sapiens) (UniProt Q13546); assay: Selectivity interaction (KinomeScan (DiscoverX)) EUB0000092b RIPK1; conditions: at 10 µM
T3 sequence (whole entry): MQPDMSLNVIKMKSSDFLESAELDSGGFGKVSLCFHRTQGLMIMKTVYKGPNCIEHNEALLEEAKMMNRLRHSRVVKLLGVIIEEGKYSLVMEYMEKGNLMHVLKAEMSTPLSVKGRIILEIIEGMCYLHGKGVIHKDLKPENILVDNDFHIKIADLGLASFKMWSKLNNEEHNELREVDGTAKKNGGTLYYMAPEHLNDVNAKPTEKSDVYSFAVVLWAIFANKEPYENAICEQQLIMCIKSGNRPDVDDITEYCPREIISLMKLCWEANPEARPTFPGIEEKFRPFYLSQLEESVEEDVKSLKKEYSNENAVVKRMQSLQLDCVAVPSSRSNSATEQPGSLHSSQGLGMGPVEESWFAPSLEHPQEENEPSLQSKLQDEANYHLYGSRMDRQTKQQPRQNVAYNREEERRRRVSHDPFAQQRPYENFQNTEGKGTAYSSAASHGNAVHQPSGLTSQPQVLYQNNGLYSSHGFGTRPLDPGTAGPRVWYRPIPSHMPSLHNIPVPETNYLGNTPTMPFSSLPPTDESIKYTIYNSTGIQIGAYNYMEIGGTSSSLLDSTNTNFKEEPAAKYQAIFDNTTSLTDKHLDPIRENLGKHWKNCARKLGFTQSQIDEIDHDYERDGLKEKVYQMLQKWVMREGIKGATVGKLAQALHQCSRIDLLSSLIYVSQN

[8] = biological target: Tyrosine-protein kinase ABL2 (Homo sapiens, UniProt P42684); assay: Selectivity interaction (KinomeScan (DiscoverX)) EUB0000045b ABL2
Chain of Tyrosine-protein kinase ABL2 (P42684 whole entry): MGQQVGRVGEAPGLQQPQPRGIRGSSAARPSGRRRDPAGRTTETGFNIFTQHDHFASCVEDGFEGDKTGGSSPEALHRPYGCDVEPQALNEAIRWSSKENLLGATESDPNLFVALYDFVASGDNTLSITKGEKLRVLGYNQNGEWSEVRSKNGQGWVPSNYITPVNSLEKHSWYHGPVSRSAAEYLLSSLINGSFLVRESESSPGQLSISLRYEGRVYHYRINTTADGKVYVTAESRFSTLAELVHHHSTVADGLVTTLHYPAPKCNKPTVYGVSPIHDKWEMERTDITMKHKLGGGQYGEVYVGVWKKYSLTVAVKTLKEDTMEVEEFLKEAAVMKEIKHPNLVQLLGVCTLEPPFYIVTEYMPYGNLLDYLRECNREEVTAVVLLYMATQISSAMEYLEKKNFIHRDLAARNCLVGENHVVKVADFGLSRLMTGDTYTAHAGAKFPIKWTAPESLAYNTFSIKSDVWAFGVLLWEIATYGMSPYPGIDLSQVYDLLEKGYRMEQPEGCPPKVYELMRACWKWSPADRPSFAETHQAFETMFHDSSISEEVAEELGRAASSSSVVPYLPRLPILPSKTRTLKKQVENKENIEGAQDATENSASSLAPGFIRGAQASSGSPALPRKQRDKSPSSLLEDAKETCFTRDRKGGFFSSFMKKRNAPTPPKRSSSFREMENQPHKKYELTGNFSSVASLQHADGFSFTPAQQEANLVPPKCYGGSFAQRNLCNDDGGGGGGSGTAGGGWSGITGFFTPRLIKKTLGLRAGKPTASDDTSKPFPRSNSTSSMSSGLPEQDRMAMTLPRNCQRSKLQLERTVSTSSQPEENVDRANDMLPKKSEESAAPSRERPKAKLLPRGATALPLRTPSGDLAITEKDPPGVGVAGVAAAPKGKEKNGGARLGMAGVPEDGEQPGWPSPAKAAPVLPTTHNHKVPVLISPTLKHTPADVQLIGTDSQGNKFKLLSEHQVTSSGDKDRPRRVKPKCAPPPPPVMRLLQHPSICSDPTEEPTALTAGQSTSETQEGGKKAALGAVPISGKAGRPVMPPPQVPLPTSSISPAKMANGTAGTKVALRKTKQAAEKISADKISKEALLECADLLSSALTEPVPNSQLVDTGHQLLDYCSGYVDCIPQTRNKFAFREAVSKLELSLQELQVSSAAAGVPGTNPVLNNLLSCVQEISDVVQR

[9] = biological target: Ribosomal protein S6 kinase beta-1 (Homo sapiens, UniProt P23443); assay: Selectivity interaction (ActivX KiNativ screen (ex vivo kinase selectivity in human PBMCs)) EUB0001619a RPS6KB1; format: cell-based; conditions: PBMC, at 1 µM
[10] = biological target: Serine/threonine-protein kinase WNK1 (Homo sapiens) (UniProt Q9H4A3); assay: Selectivity interaction (ActivX KiNativ screen (ex vivo kinase selectivity in human PBMCs)) EUB0001619a WNK1; format: cell-based; conditions: PBMC, at 1 µM
Chain of Serine/threonine-protein kinase WNK1 (Homo sapiens) (Q9H4A3 whole entry, looked up): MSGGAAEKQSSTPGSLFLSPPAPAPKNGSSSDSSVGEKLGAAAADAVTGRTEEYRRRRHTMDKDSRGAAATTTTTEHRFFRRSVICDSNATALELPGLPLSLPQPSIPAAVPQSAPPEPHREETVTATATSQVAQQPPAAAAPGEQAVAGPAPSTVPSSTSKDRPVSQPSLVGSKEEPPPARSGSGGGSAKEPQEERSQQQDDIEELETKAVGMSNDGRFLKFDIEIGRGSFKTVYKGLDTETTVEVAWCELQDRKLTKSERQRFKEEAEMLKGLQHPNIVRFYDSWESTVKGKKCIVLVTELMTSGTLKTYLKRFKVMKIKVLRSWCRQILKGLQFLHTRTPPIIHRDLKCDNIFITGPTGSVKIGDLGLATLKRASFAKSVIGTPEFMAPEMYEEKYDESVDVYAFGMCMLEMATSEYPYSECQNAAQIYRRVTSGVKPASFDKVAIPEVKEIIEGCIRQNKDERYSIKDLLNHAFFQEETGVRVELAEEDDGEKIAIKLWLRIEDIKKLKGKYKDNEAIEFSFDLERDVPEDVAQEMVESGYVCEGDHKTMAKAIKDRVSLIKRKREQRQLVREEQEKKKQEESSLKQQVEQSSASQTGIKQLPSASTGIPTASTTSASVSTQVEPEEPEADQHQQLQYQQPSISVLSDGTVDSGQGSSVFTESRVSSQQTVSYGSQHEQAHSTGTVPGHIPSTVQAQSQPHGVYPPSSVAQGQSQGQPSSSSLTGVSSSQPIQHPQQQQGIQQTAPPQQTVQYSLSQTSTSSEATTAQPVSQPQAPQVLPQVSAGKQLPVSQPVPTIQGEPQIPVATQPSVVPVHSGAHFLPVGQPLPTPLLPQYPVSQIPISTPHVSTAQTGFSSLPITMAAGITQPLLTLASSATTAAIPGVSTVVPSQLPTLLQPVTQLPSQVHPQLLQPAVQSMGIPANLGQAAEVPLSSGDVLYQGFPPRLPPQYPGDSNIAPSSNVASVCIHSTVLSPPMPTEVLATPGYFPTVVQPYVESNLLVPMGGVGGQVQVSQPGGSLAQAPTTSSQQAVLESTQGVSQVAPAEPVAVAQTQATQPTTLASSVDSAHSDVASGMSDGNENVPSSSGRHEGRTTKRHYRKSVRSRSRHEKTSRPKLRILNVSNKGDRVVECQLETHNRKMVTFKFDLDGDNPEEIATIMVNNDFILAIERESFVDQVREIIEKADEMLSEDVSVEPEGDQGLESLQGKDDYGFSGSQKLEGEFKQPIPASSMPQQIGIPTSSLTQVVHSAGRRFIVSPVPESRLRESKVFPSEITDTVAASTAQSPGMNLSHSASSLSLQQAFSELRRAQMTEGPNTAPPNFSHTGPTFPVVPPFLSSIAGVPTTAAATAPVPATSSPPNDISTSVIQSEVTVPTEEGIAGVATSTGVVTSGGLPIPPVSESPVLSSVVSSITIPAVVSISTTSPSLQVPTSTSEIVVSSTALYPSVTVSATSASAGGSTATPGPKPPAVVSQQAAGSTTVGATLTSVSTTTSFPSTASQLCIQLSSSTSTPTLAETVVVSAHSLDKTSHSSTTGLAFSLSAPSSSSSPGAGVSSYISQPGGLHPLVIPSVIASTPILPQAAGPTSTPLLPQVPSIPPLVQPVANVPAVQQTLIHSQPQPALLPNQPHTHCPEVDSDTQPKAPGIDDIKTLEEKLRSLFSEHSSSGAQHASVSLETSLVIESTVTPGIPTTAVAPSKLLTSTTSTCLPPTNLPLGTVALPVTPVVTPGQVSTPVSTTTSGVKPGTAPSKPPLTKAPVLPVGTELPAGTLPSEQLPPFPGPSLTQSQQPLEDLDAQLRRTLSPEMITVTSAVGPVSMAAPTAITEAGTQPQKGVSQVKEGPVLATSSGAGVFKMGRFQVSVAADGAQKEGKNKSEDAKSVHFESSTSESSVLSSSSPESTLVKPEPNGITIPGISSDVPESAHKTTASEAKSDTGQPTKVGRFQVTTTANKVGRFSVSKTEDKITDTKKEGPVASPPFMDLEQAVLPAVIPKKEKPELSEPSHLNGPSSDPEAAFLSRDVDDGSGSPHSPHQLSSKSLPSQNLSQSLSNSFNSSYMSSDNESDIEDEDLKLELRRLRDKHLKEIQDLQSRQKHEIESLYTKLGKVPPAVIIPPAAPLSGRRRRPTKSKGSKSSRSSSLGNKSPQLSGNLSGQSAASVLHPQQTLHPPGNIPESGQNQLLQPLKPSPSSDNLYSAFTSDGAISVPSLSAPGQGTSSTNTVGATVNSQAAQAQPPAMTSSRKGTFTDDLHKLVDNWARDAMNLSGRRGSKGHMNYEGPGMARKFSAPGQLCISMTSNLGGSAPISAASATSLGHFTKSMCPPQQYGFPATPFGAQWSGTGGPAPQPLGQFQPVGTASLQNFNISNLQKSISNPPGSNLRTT

Mu-type opioid receptor = Mu-type opioid receptor (Homo sapiens, UniProt P35372); assay: Selectivity interaction (Panel of kinases, GPCRs, ion channels and transporters (enzymatic assay)) EUB0000223bCl OPRM1

Chain of Receptor-type tyrosine-protein kinase FLT3 (Homo sapiens) (P36888 whole entry): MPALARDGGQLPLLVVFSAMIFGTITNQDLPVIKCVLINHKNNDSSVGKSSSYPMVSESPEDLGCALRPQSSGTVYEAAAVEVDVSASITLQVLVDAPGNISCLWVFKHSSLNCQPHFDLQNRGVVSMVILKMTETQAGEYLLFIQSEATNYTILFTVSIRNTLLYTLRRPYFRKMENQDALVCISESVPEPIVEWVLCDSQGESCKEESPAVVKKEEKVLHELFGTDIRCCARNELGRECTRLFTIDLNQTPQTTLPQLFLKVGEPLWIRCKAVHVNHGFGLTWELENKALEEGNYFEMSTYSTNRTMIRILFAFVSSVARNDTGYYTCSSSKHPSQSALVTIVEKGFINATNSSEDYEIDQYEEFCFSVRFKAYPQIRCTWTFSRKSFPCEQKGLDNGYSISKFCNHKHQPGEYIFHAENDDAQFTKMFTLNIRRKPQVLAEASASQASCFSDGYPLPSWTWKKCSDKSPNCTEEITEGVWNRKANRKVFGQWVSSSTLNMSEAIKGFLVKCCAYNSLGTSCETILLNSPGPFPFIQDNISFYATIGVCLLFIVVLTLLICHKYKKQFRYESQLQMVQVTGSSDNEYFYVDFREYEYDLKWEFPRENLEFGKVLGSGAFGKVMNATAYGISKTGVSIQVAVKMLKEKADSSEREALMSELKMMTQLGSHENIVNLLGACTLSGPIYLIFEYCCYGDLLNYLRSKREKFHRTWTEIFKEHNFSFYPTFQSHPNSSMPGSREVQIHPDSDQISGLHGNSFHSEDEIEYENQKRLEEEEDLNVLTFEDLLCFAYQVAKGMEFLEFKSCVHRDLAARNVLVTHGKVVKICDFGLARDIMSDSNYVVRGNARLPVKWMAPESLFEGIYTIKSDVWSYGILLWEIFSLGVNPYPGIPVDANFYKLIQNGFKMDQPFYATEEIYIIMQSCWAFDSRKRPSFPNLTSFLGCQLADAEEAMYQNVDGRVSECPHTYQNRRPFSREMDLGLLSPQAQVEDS

- % of inhibition [1]: 57%
Structure (SMILES): CCc1cc(Nc2nccc(-c3c(-c4ccc(OC)c(C(=O)Nc5c(F)cccc5F)c4)nc4ccccn34)n2)c(OC)cc1N1CCC(N2CCN(S(C)(=O)=O)CC2)CC1

Structure (SMILES): COc1cc(Nc2nc(C)cc(-c3cnn4nc(OC)ccc34)n2)cc(C(F)(F)F)c1
- % of control [2]: 80%

- % of inhibition [3]: -6.4%
Structure (SMILES): CC[C@@H]1[C@H](F)C(=O)N[C@@H]1COc1nccc2cc(C(N)=O)c(OC)cc12 [ZIMLOVISERTIB]

- % of inhibition [4]: -3%
Structure (SMILES): CN1Cc2nccc(-c3cn(C)nc3-c3ccc(F)cc3)c2C1=O

Structure (SMILES): COCC(=O)NC/C=C/c1ccc2ncnc(Nc3ccc(Oc4ccc(C)nc4)c(C)c3)c2c1 [CP-724714]
- % of control [5]: 99%

Structure (SMILES): COc1cc(N(C)c2ccnc3ccc(C(F)(F)F)cc23)cc(OC)c1OC
- % binding [6]: 96%

Structure (SMILES): CCC(=O)N1CCN(c2ccc(-n3c(=O)ccc4cnc5ccc(-c6cnc7ccccc7c6)cc5c43)cc2C(F)(F)F)CC1
- % of control [7]: 1.9%

Structure (SMILES): C=CC(=O)Nc1cc(-n2c(=O)ccc3cnc4ccc(-c5ccc(NS(C)(=O)=O)cc5)cc4c32)ccc1C
- % of control ([8]; at 1 µM): 100%
- % of control ([8]; at 10 µM): 100%

Structure (SMILES): N#Cc1cccc(-c2c[nH]c3ncnc(N4CCOCC4)c23)c1
- % of inhibition [9]: 11%
- % of inhibition [10]: -1%

Structure (SMILES): COc1cc(C(=O)N2CC[C@@H](O)[C@@H](N)C2)cc2nc(-c3cc4ccccc4n3CC3CC3)n(C)c12
- pXC50 (Mu-type opioid receptor): < 4 M
